The text below walks through data of patent EP3782997A1, “FUSED PYRIMIDINE COMPOUNDS AND PHARMACEUTICAL COMPOSITIONS THEREOF FOR THE TREATMENT OF FIBROTIC DISEASES” (Galapagos N.V., priority 2019, dated 2021).

The term IC50 denotes the concentration that gives 50% inhibition. Low readings indicate greater potency in that assay, high ones weaker potency in that assay.

Molecules are shown by their SMILES. Bounds are passed on as bounds.

The assay addresses hENPP2 (Homo sapiens, UniProt Q13822). Kind of assay: Human ENPP2 (hENPP2) biochemical assay using LPC as substrate. The settings on record: 150 µM LPC (palmitoyl 16:0), 37°C for 30 min. The method, boiled down:
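Enzyme at 1 or 3 µg/mL final in Tris-HCl pH 8.5, NaCl, KCl, CaCl2, fatty-acid-free BSA; reaction started with 150 µM LPC 16:0 (as added), 30 min at 37°C. Released choline developed with choline oxidase/peroxidase/TOOS/4-aminoantipyrine plus EGTA stop, read at 555 nm after 30 min; 1/3 dilutions from 50 µM give IC50.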
`Cc1cc(C)cc(Nc2ncc3c(n2)CN([C@@H]2CCN(C(=O)c4cc(NS(C)(=O)=O)ncc4F)[C@H](C)C2)C3)c1` [compound 208, N-[4-[(2R,4R)-4-[2-(3,5-dimethylanilino)-5,7-dihydropyrrolo[3,4-d]pyrimidin-6-yl]-2-methyl-piperidine-1-carbonyl]-5-fluoro-2-pyridyl]methanesulfonamide] displayed an IC50 of 0.01 to 100 nM.

With `CC(=O)Nc1cc(C(=O)N2CC[C@@H](N3Cc4cnc(Nc5cc(C)cc(C)c5)nc4C3)C[C@H]2C)ccn1` [compound 209, N-[4-[(2R,4R)-4-[2-(3,5-dimethylanilino)-5,7-dihydropyrrolo[3,4-d]pyrimidin-6-yl]-2-methyl-piperidine-1-carbonyl]-2-pyridyl]acetamide], the IC50 fell in the range of 500 to 1000 nM. Next, `CCS(=O)(=O)Nc1cc(C(=O)N2CC[C@@H](N3Cc4cnc(Nc5cc(C)cc(C)c5)nc4C3)C[C@H]2C)ccn1` [compound 210, N-[4-[(2R,4R)-4-[2-(3,5-dimethylanilino)-5,7-dihydropyrrolo[3,4-d]pyrimidin-6-yl]-2-methyl-piperidine-1-carbonyl]-2-pyridyl]ethanesulfonamide]: 0.01 to 100 nM; `Cc1cc(C)cc(Nc2ncc3c(n2)CN([C@@H]2CCN(C(=O)c4cncc(NS(C)(=O)=O)c4)[C@H](C)C2)C3)c1` [compound 211, N-[5-[(2R,4R)-4-[2-(3,5-dimethylanilino)-5,7-dihydropyrrolo[3,4-d]pyrimidin-6-yl]-2-methyl-piperidine-1-carbonyl]-3-pyridyl]methanesulfonamide]: above 1000 nM; `Cc1cc(C)cc(Nc2ncc3c(n2)CN([C@@H]2CCN(C(=O)c4ccnc(NS(=O)(=O)C(F)(F)F)c4)[C@H](C)C2)C3)c1` [compound 212, N-[4-[(2R,4R)-4-[2-(3,5-dimethylanilino)-5,7-dihydropyrrolo[3,4-d]pyrimidin-6-yl]-2-methyl-piperidine-1-carbonyl]-2-pyridyl]-1,1,1-trifluoro-methanesulfonamide]: 100 to 500 nM. Take `C[C@@H]1C[C@H](N2Cc3cnc(Nc4cc(F)cc(Cl)c4)nc3C2)CCN1C(=O)c1ccnc(NS(C)(=O)=O)c1` [compound 213, N-[4-[(2R,4R)-4-[2-(3-chloro-5-fluoro-anilino)-5,7-dihydropyrrolo[3,4-d]pyrimidin-6-yl]-2-methyl-piperidine-1-carbonyl]-2-pyridyl]methanesulfonamide]: the 50% inhibitory concentration (IC50) lay within 0.01 to 100 nM. Next, `C[C@@H]1C[C@@H](N2Cc3cnc(Nc4cc(F)cc(Cl)c4)nc3C2)CCN1C(=O)c1ccnc(NS(C)(=O)=O)c1` [compound 214, N-[4-[(2R,4S)-4-[2-(3-chloro-5-fluoro-anilino)-5,7-dihydropyrrolo[3,4-d]pyrimidin-6-yl]-2-methyl-piperidine-1-carbonyl]-2-pyridyl]methanesulfonamide]: 100 to 500 nM; `Cc1cc(Nc2ncc3c(n2)CN([C@@H]2CCN(C(=O)c4ccnc(NS(C)(=O)=O)c4)[C@H](C)C2)C3)ccc1C(F)(F)F` [compound 215, N-[4-[(2R,4R)-2-methyl-4-[2-[3-methyl-4-(trifluoromethyl)anilino]-5,7-dihydropyrrolo[3,4-d]pyrimidin-6-yl]piperidine-1-carbonyl]-2-pyridyl]methanesulfonamide]: 0.01 to 100 nM; `Cc1cc(Nc2ncc3c(n2)CN([C@H]2CCN(C(=O)c4ccnc(NS(C)(=O)=O)c4)[C@H](C)C2)C3)ccc1C(F)(F)F` [compound 216, N-[4-[(2R,4S)-2-methyl-4-[2-[3-methyl-4-(trifluoromethyl)anilino]-5,7-dihydropyrrolo[3,4-d]pyrimidin-6-yl]piperidine-1-carbonyl]-2-pyridyl]methanesulfonamide]: 0.01 to 100 nM. Then `COc1cc(Nc2ncc3c(n2)CN([C@@H]2CCN(C(=O)c4ccnc(NS(C)(=O)=O)c4)[C@H](C)C2)C3)ccc1Cl` [compound 217, N-[4-[(2R,4R)-4-[2-(4-chloro-3-methoxy-anilino)-5,7-dihydropyrrolo[3,4-d]pyrimidin-6-yl]-2-methyl-piperidine-1-carbonyl]-2-pyridyl]methanesulfonamide], with 0.01 to 100 nM. Then `Cc1cc(C)cc(Nc2ncc3c(n2)CN([C@@H]2CCN(C(=O)c4cc(NS(C)(=O)=O)ncc4C)[C@H](C)C2)C3)c1` [compound 218, N-[4-[(2R,4R)-4-[2-(3,5-dimethylanilino)-5,7-dihydropyrrolo[3,4-d]pyrimidin-6-yl]-2-methyl-piperidine-1-carbonyl]-5-methyl-2-pyridyl]methanesulfonamide], with 0.01 to 100 nM. Molecule `C[C@@H]1C[C@@H](N2Cc3cnc(Nc4cccc(OC5CC5)c4)nc3C2)CCN1C(=O)c1ccnc(NS(C)(=O)=O)c1` [compound 219, N-[4-[(2R,4S)-4-[2-[3-(cyclopropoxy)anilino]-5,7-dihydropyrrolo[3,4-d]pyrimidin-6-yl]-2-methyl-piperidine-1-carbonyl]-2-pyridyl]methanesulfonamide] registered an IC50 of 100 to 500 nM.
